Measurements from US20200216416A1, “QUINOLINE COMPOUNDS AS INHIBITORS OF TAM AND MET KINASES” (Array BioPharma Inc., priority 2019, published 2020).

Columns and labels:
[1] = target: T1, human MET kinase del Ex14 (Homo sapiens, UniProt P08581, DEL963-1009); assay: c-Met Enzyme Assay, del Ex14 mutant; format: binding; details: averaged IC50; del Ex14 5 nM; 60-minute incubation at 22° C.; read-out: Del14 IC50
T1 construct: GST-tagged recombinant human MET kinase domain; purchased Signal Chem
Method in brief: (§1)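 LanthaScreen Eu TR-FRET binding: GST-tagged recombinant MET kinase domain incubated with compound, 50 nM Alexa-Fluor Tracer 236 and 2 nM Eu-anti-GST in 25 mM HEPES pH 7.4, 10 mM MgCl2, 1 mM DTT, 2% DMSO, 60 min at 22 °C. Ratiometric emission gave percent of control; IC50 from 4-parameter fit at 50 POC.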

human MET kinase D1228N = target: T2, human MET kinase D1228N (Homo sapiens, UniProt P08581, D1228N); assay: c-Met Enzyme Assay, D1228N mutant; format: binding; details: averaged IC50; D1228N 2 nM; 60-minute incubation at 22° C.; read-out: D1228 N IC50
T2 construct: GST-tagged recombinant human MET kinase domain; purchased Signal Chem
Method in brief: as §1

[2] = target: T3, His-tagged recombinant human MER cytoplasmic domain (Homo sapiens, UniProt Q12866); assay: MER Enzyme Assay (LanthaScreen Eu Kinase Binding); details: averaged IC50; MER 5 nM; 60-minute incubation at 22° C.; TR-FRET
T3 construct: His-tagged recombinant human MER cytoplasmic domain
T3 sequence (Q12866 527-999 limits assumed): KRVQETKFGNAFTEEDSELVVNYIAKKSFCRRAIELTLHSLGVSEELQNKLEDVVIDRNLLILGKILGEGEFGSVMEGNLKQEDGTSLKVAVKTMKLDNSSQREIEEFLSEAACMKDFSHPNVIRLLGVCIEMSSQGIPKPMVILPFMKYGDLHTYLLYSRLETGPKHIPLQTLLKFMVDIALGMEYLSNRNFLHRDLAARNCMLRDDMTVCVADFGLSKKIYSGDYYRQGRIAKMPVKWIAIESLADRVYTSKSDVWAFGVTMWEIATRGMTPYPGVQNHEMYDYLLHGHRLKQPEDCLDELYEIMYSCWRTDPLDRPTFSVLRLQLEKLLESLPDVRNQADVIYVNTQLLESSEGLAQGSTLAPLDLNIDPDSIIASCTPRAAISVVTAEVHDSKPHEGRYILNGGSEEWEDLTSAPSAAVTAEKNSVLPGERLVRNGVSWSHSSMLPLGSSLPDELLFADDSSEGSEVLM
Method in brief: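 TR-FRET binding: 5 nM His-MER cytoplasmic domain with 20 nM Tracer 236, 2 nM biotin-anti-His and 2 nM Eu-streptavidin in pH 7.4 HEPES, 10 mM MgCl2, 2% DMSO, with threefold compound dilutions, 60 min at 22 °C. Percent of control was fit to a 4-parameter logistic, and IC50 was taken at 50 POC.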

human MET kinase Y1230C = target: T4, human MET kinase Y1230C (Homo sapiens, UniProt P08581, Y1230C); assay: c-Met Enzyme Assay, Y1230C mutant; format: binding; details: averaged IC50; Y1230C 2 nM; 60-minute incubation at 22° C.; read-out: Y1230 C IC50
T4 construct: GST-tagged recombinant human MET kinase domain; purchased Signal Chem
Method in brief: as §1

[3] = target: T5, MET (wt) GST-tagged recombinant human MET kinase domain (Homo sapiens, UniProt P08581); assay: c-Met Enzyme Assay, wild type (LanthaScreen Eu Kinase Binding); details: averaged IC50; MET (wt) 10 nM; 60-minute incubation at 22° C.; read-out: SigChem WT IC50
T5 construct: GST-tagged recombinant human MET kinase domain; purchased Signal Chem
Method in brief: as §1

human MET kinase Y1230H = target: T6, human MET kinase Y1230H (Homo sapiens, UniProt P08581, Y1230H); assay: c-Met Enzyme Assay, Y1230H mutant; format: binding; details: averaged IC50; Y1230H 5 nM; 60-minute incubation at 22° C.; read-out: Y1230 H IC50
T6 construct: GST-tagged recombinant human MET kinase domain; purchased Signal Chem
Method in brief: as §1

human MET kinase D1228H = target: T7, human MET kinase D1228H (Homo sapiens, UniProt P08581, D1228H); assay: c-Met Enzyme Assay, D1228H mutant; format: binding; details: averaged IC50; D1228H 2 nM; 60-minute incubation at 22° C.; read-out: D1228 H IC50
T7 construct: GST-tagged recombinant human MET kinase domain; purchased Signal Chem
Method in brief: as §1

human MET kinase F1200I = target: T8, human MET kinase F1200I (Homo sapiens, UniProt P08581, F1200I); assay: c-Met Enzyme Assay, F1200I mutant; format: binding; details: averaged IC50; F1200I 2 nM; 60-minute incubation at 22° C.
T8 construct: GST-tagged recombinant human MET kinase domain; purchased Signal Chem
Method in brief: as §1

human MET kinase L1195V = target: T9, human MET kinase L1195V (Homo sapiens, UniProt P08581, L1195V); assay: c-Met Enzyme Assay, L1195V mutant; format: binding; details: averaged IC50; L1195V 10 nM; 60-minute incubation at 22° C.
T9 construct: GST-tagged recombinant human MET kinase domain; purchased Signal Chem
Method in brief: as §1

T8 sequence (P08581 1078-1345 F1200I limits assumed): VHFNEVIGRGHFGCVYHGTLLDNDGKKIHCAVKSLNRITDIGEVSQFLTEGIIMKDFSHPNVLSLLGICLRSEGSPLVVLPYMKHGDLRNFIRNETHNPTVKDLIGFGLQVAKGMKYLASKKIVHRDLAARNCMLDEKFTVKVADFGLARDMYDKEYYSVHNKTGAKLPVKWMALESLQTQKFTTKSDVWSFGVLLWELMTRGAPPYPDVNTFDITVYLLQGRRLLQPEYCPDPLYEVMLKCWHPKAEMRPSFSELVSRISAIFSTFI
T5 sequence (P08581 1078-1345 limits assumed): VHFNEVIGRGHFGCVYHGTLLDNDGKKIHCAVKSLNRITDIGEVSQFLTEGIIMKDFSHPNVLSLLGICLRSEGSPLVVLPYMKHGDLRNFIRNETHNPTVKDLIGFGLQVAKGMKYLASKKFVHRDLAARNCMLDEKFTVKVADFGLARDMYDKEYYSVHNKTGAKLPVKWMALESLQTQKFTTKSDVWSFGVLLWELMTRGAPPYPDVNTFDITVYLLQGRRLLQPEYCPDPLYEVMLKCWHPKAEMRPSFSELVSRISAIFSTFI
T4 sequence (P08581 1078-1345 Y1230C): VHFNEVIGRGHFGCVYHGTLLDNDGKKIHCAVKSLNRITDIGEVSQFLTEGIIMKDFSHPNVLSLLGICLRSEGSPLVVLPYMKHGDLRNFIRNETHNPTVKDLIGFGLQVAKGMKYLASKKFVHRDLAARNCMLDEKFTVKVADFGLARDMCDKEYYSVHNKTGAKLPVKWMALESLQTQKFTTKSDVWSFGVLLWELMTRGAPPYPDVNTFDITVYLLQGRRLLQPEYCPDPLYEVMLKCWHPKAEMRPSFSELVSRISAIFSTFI
T1 sequence (P08581 with tags, fused parts or gaps DEL963-1009 limits assumed): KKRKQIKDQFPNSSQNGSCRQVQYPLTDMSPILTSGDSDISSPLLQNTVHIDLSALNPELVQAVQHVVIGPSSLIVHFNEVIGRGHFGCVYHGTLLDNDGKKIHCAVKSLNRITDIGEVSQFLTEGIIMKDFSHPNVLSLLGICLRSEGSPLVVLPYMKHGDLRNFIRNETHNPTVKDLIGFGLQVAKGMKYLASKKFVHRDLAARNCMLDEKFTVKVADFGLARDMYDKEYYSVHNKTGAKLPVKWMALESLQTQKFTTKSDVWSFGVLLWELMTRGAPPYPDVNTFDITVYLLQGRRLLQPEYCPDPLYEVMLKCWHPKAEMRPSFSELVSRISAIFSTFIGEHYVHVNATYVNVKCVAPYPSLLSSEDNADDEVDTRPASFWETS
T7 sequence (P08581 1078-1345 D1228H): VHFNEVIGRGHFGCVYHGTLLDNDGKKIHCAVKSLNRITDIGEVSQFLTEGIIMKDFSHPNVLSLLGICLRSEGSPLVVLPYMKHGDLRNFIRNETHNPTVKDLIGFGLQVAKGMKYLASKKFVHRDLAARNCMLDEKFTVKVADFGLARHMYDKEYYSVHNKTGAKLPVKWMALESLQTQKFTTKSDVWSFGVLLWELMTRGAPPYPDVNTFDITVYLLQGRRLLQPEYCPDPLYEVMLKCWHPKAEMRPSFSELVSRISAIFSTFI
T9 sequence (P08581 1078-1345 L1195V limits assumed): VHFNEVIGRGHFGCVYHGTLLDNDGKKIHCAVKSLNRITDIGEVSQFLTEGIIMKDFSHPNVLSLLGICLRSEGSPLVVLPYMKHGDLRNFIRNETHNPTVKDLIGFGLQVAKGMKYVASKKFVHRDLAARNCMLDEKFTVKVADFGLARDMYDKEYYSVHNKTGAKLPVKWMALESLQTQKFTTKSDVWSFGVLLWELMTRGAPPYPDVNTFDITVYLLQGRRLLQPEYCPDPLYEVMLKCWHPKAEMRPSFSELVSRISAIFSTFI
T2 sequence (P08581 1078-1345 D1228N): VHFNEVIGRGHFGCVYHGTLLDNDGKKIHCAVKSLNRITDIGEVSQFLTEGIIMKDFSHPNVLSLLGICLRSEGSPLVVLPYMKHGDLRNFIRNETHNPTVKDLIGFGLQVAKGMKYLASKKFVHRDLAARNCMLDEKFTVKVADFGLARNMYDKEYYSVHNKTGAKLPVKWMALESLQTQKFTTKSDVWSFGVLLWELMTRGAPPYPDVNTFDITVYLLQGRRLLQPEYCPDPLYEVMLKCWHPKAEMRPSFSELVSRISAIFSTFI
T6 sequence (P08581 1078-1345 Y1230H): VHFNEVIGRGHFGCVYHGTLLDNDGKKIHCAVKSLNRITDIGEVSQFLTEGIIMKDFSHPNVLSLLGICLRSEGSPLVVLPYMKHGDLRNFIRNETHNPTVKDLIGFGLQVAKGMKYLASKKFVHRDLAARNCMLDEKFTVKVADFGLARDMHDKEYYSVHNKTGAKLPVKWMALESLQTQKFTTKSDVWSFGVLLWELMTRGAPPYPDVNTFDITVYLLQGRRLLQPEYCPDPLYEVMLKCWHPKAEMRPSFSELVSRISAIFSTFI

SMILES	IC50 [1] [nM]	IC50 (human MET kinase D1228N) [nM]	IC50 [2] [nM]	IC50 (human MET kinase Y1230C) [nM]	IC50 [3] [nM]	IC50 (human MET kinase Y1230H) [nM]	IC50 (human MET kinase D1228H) [nM]	IC50 (human MET kinase F1200I) [nM]	IC50 (human MET kinase L1195V) [nM]
COc1cc2nccc(Oc3ccc(NC(=O)c4cn(CCC(C)C)cc(-c5ccc(F)cc5F)c4=O)nc3)c2cc1OC [Example 36, 5-(2,4-difluorophenyl)-N-(5-((6,7-dimethoxyquinolin-4yl)oxy)pyridin-2-yl)-1-isopentyl-4-oxo-1,4-dihydropyridine-3-carboxamide]	2.4	4.8	8	2.8	2.4	4.4	1.8	3.2	14.4
COc1cc2nccc(Oc3ccc(NC(=O)c4cn(CCC(C)C)cc(-c5ccc(Cl)cc5)c4=O)nc3)c2cc1OC [Example 37]	12.2	16.8	16	9.3	10	16.8	10.5	16.4	23.2
COc1cc2nccc(Oc3ccc(NC(=O)c4cn(CCN(C)C)cc(-c5ccc(Cl)cc5)c4=O)nc3)c2cc1OC [Example 42]	1.9	7	9	2.4	3.2	6.7	2.4	3.4	8.2
COc1cc2nccc(Oc3ccc(NC(=O)c4cn(CCN(C)C)cc(-c5ccc(F)c(F)c5)c4=O)nc3)c2cc1OC [Example 43, 5-(3,4-difluorophenyl)-N-(5-((6,7-dimethoxyquinolin-4-yl)oxy)pyridin-2-yl)-1-]	2.5	2.7	5	1.4	1.4	2.9	1.6	2	14.2
COc1cc2nccc(Oc3ccc(NC(=O)c4cn(CCN(C)C)cc(-c5ccc(F)cc5F)c4=O)nc3)c2cc1OC [Example 44, 5-(2,4-difluorophenyl)-N-(5-((6,7-dimethoxyquinolin-4-yl)oxy)pyridin-2-yl)-1-(2-(dimethylamino)ethyl)-4-oxo-1,4-dihydropyridine-3-carboxamide]	2.1	3.2	3	1.7	2.2	2.7	1.9	4.2	18.9
COc1cc2nccc(Oc3ccc(NC(=O)c4cn(C)c(C(C)C)c(-c5ccc(F)cc5)c4=O)nc3)c2cc1OC [Example 45, N-(5-((6,7-dimethoxyquinolin-4-yl)oxy)pyridin-2-yl)-5-(4-fluorophenyl)-6-isopropyl-1-methyl-4-oxo-1,4-dihydropyridine-3-carboxamide]	5.7	13.4	27	4.4	4.4	9.9	11.1	8.3	41.4
COc1cc2nccc(Oc3ccc(NC(=O)c4cn(CCN(C)C)cc(-c5ccc(F)cc5)c4=O)nc3)c2cc1OC [Example 46]	2.8	5.4	2	1.7	3	3.4	3.2	3.4	21.9
COc1cc2c(Oc3ccc(NC(=O)c4cn(C(C)C)c(C)c(-c5ccc(F)cc5)c4=O)nc3)ccnc2cc1F [Example 48, N-(5-((7-fluoro-6-methoxyquinolin-4yl)oxy)pyridin-2-yl)-5-(4-fluorophenyl)-1-isopropyl-6-methyl-4-oxo-1,4-dihydropyridine-3-carboxamide]	4.9	14.6	5	9.4	6.8	15.8	11.9	5.4	31.7

The next lines start with the values.

IC50 [1] [nM]	IC50 (human MET kinase D1228N) [nM]	IC50 [2] [nM]	IC50 (human MET kinase Y1230C) [nM]	IC50 [3] [nM]	IC50 (human MET kinase Y1230H) [nM]	IC50 (human MET kinase D1228H) [nM]	IC50 (human MET kinase F1200I) [nM]	IC50 (human MET kinase L1195V) [nM]	SMILES
25.6	179	16	47	29.4	209	66.3	31.6	508	CCn1cc(C(=O)Nc2ccc(Oc3ccnc4ccc(OC)cc34)cn2)c(=O)c(-c2ccc(F)cc2)c1 [Example 39, 1-ethyl-5-(4-fluorophenyl)-N-(5-((6-methoxyquinolin-4-yl)oxy)pyridin-2-yl)-4-oxo-1,4-dihydropyridine-3-carboxamide]
108	646	33	173	117	328	258	105	2220	COc1ccc2nccc(Oc3ccc(NC(=O)c4cn(C)cc(-c5ccc(F)cc5)c4=O)nc3)c2c1 [Example 41, 5-(4-fluorophenyl)-N-(5-((6-methoxyquinolin-4yl)oxy)pyridin-2-yl)-1-methyl-4-oxo-1,4-dihydropyridine-3-carboxamide]
14.3	29.7	7	8.8	10.2	29.4	31.1	8.5	414	COc1ccc2nccc(Oc3ccc(NC(=O)c4cn(CCN(C)C)cc(-c5ccc(F)cc5)c4=O)nc3)c2c1 [Example 47]
22	130	5	39	27	112	64.3	27.8	459	COc1cc2c(Oc3ccc(NC(=O)c4cn(C(C)C)cc(-c5ccc(F)cc5)c4=O)nc3)ccnc2cc1F [Example 49, N-(5-((7-fluoro-6-methoxyquinolin-4yl)oxy)pyridin-2-yl)-5-(4-fluorophenyl)-1-isopropyl-4-oxo-1,4-dihydropyridine-3-carboxamide]
90.4	444	79	199	59.2	397	223	104	1030	CC(C)n1cc(C(=O)Nc2ccc(Oc3ccnc4cc(OC(F)(F)F)ccc34)cn2)c(=O)c(-c2ccc(F)cc2)c1 [Example 50, 5-(4-fluorophenyl)-1-isopropyl-4-oxo-N-(5-((7-(trifluoromethoxy)quinolin-4-yl)oxy)pyridin-2-yl)-1,4-dihydropyridine-3-carboxamide]
29.4	178	14	61.8	22.2	200	59.5	35	495	CCOc1ccc2nccc(Oc3ccc(NC(=O)c4cn(C(C)C)cc(-c5ccc(F)cc5)c4=O)nc3)c2c1 [Example 51, N-(5-((6-ethoxyquinolin-4-yl)oxy)pyridin-2-yl)-5-(4-fluorophenyl)-1-isopropyl-4-oxo-1,4-dihydropyridine-3-carboxamide]
10.3	26.3	11	13.1	14.7	32.6	14.5	20.1	73.6	CCOc1ccc2c(Oc3ccc(NC(=O)c4cn(C(C)C)cc(-c5ccc(F)cc5)c4=O)nc3)ccnc2c1 [Example 52, N-(5-((7-ethoxyquinolin-4-yl)oxy)pyridin-2-yl)-5-(4-fluorophenyl)-1-isopropyl-4-oxo-1,4-dihydropyridine-3-carboxamide]
